Test results taken from US20040156869A1, “2-substituted quinazolin-4-ylamine analogues” (Neurogen Corporation, priority 2002, published 2004).

Molecular target: human capsaicin receptor (VR1) (Homo sapiens, UniProt Q8NER1)
Assay: Capsaicin receptor binding assay ([3H]RTX competition, VR1-transfected HEK293 membranes)
Conditions: not given

Chain of human capsaicin receptor (VR1) (Q8NER1 whole entry): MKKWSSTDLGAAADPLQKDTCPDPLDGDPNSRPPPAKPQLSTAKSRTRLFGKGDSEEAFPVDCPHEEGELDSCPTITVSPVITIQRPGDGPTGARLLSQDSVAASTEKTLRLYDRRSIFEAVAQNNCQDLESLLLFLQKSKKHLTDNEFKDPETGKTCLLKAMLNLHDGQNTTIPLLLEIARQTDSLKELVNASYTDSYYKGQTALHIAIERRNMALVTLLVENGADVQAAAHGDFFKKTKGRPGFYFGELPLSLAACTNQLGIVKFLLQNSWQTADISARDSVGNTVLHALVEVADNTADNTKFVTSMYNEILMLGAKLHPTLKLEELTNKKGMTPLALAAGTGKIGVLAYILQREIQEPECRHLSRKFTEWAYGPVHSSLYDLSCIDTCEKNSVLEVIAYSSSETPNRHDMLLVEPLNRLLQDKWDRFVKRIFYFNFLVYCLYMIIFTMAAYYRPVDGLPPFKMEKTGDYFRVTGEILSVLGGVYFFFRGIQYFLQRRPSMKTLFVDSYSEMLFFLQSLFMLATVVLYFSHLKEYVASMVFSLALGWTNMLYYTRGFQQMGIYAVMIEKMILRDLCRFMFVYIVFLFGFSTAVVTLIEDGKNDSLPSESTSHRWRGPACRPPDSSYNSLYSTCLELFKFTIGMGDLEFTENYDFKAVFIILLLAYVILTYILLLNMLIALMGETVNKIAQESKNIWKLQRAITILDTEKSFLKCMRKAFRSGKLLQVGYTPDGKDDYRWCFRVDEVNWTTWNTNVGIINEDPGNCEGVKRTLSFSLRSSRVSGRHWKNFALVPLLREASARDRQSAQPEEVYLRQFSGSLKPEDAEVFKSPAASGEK

For C=C(C)CN(CC)Cc1nc(Nc2ccc(C(F)(F)F)cc2)c2ncc(-c3ncccc3C(F)(F)F)cc2n1 [Compound 667, [2-{[Ethyl-(2-methyl-allyl)-amino]-methyl}-7-(3-trifluoromethyl-pyridin-2-yl)-pyrido[3,2-d]pyrimidin-4-yl]-(4-trifluoromethyl-phenyl)-amine], which Ki is on record?
Its Ki is < 1000 nM.

With COCc1nc(Nc2ccc(C3CC3)cc2)c2ccc(-c3ncccc3C(F)(F)F)cc2n1 [Compound 118, (4-Cyclopropyl-phenyl)-[2-methoxymethyl-7-(3-trifluoromethyl-pyridin-2-yl)-quinazolin-4-yl]-amine] as the compound, how does the Ki read?
The Ki was < 1000 nM.

With CN(C)CCc1nc(Nc2ccc(C(F)(F)F)cc2)c2ccc(-c3ncccc3C(F)(F)F)cc2n1 [Compound 409, [2-Dimethylaminoethyl-7-(3-trifluoromethyl-pyridin-2-yl)-quinazolin-4-yl]-(4-trifluoromethyl-phenyl)-amine] as the compound, how does the Ki read?
Its Ki is < 1000 nM.

CC(C)COCc1nc(Nc2ccc(C(C)C)cc2)c2ccc(-c3ncccc3C(F)(F)F)nc2n1 [Compound 163, [2-Isobutoxymethyl-7-(3-trifluoromethyl-pyridin-2-yl)-pyrido[2,3-d]pyrimidin-4-yl]-(4-isopropyl-phenyl)-amine] was tested. Which Ki did it give?
Its Ki is < 1000 nM.

How did the Ki turn out when O=S(=O)(c1ccc(Nc2nc(COC3CCOCC3)nc3cc(-c4ncccc4C(F)(F)F)ccc23)cc1)N1CCOCC1 [Compound 141, [4-(Morpholine-4-sulfonyl)-phenyl]-[2-(tetrahydro-pyran-4-yloxymethyl)-7-(3-trifluoromethyl-pyridin-2-yl)-quinazolin-4-yl]-amine] was run?
Its Ki is < 1000 nM.

With CC(C)COCc1nc(Nc2ccc(Cl)c(C(F)(F)F)c2)c2ccc(-c3ncccc3C(F)(F)F)nc2n1 [Compound 255, (4-Chloro-3-trifluoromethyl-phenyl)-[2-isobutoxymethyl-7-(3-trifluoromethyl-pyridin-2-yl)-pyrido[2,3-d]pyrimidin-4-yl]-amine] as the compound, how does the Ki read?
The Ki was < 1000 nM.

Which Ki does the source give for CCCN1CCC(c2nc(Nc3ccc(C(F)(F)F)cc3)c3ccc(-c4ncccc4C(F)(F)F)cc3n2)CC1 [Compound 690, [2-(1-Propyl-piperidin-4-yl)-7-(3-trifluoromethyl-pyridin-2-yl)-quinazolin-4-yl]-(4-trifluoromethyl-phenyl)-amine] here?
The Ki was < 1000 nM.

CCOc1ccc(Nc2nc(COCC(C)C)nc3nc(-c4ncccc4C(F)(F)F)ccc23)cc1 [Compound 251, (4-Ethoxy-phenyl)-[2-isobutoxymethyl-7-(3-trifluoromethyl-pyridin-2-yl)-pyrido[2,3-d]pyrimidin-4-yl]-amine] was tested. Which Ki did it give?
The Ki was < 1000 nM.

Which Ki does the source give for CCOCc1nc(Nc2ccc(C(C)C(F)(F)F)cc2)c2ccc(-c3ncccc3C(F)(F)F)nc2n1 (stereo not drawn) [Compound 231, [2-Ethoxymethyl-7-(3-trifluoromethyl-pyridin-2-yl)-pyrido[2,3-d]pyrimidin-4-yl]-[4-(2,2,2-trifluoro-1-methyl-ethyl)-phenyl]-amine] here?
The Ki was < 1000 nM.

CS(=O)(=O)N1CCc2cc(Nc3nc(COCc4ccccc4)nc4cc(-c5ncccc5C(F)(F)F)ccc34)ccc21 [Compound 44, [2-Benzyloxymethyl-7-(3-trifluoromethyl-pyridin-2-yl)-quinazolin-4-yl]-(1-methanesulfonyl-2,3-dihydro-1H-indol-5-yl)-amine] was tested. Which Ki did it give?
Its Ki is < 1000 nM.

How did the Ki turn out when CCCCCCNCc1nc(Nc2ccc(C(F)(F)F)cc2)c2ccc(-c3ncccc3C(F)(F)F)cc2n1 [Compound 539, [2-Hexylaminomethyl-7-(3-trifluoromethyl-pyridin-2-yl)-quinazolin-4-yl]-(4-trifluoromethyl-phenyl)-amine] was run?
Its Ki is < 1000 nM.

Same assay, conditions: Table III; [3H]RTX competition binding, capsaicin receptor

For CC1CC(C)CN(Cc2nc(Nc3ccc(C(F)(F)F)cc3)c3ccc(-c4ncccc4C(F)(F)F)cc3n2)C1 (stereo not drawn) [Compound 347, [2-(3,5-Dimethyl-piperidin-1-ylmethyl)-7-(3-trifluoromethyl-pyridin-2-yl)-quinazolin-4-yl]-(4-trifluoromethyl-phenyl)-amine], which Ki is on record?
The Ki was < 1000 nM.
